31 molecules from patent publication US11178871B2, “Herbicidal pyrimidine compounds” (BASF SE, priority 2016, dated 2021) can be followed below.

Each structure is given as a SMILES string.

What all share (format): in vivo
For assay [1], the system named is Echinocloa crus-galli. Put plainly: greenhouse test, post-emergence treatment, ECHCG. As to conditions: post-emergence. From the text:
(§1) The culture containers used were plastic flowerpots containing loamy sand with approximately 3.0% of humus as the substrate. The seeds of the test plants were sown separately for each species.
(§2) For the post-emergence treatment, the test plants were first grown to a height of 3 to 15 cm, depending on the plant habit, and only then treated with the active ingredients which had been suspended or emulsified in water. For this purpose, the test plants were either sown directly and grown in the same containers, or they were first grown separately as seedlings and transplanted into the test containers a few days prior to treatment.
(§3) Depending on the species, the plants were kept at 10-25° C. or 20-35° C., respectively.
(§4) The test period extended over 2 to 4 weeks. During this time, the plants were tended, and their response to the individual treatments was evaluated.
(§5) Evaluation was carried out using a scale from 0 to 100. 100 means no emergence of the plants, or complete destruction of at least the aerial moieties, and 0 means no damage, or normal course of growth. A good herbicidal activity is given at values of at least 70 and a very good herbicidal activity is given at values of at least 85.
(§6) The plants used in the greenhouse experiments were of the following species: […]

In assay [2] the test system is Avena fatua. Put plainly: greenhouse test, post-emergence treatment, AVEFA.
From the text: as §1, §2, §3, §4, §5, §6

The subject of assay [3] is Alopecurus myosuroides. Put plainly: greenhouse test, post-emergence treatment, ALOMY. Conditions: post-emergence.
From the text: as §1, §2, §3, §4, §5, §6

For assay [4], the system named is Echinocloa crus-galli. Description: greenhouse test, pre-emergence treatment, ECHCG.
From the text: as §1
(§7) For the pre-emergence treatment, the active ingredients, which had been suspended or emulsified in water, were applied directly after sowing by means of finely distributing nozzles. The containers were irrigated gently to promote germination and growth and subsequently covered with transparent plastic hoods until the plants had rooted. This cover caused uniform germination of the test plants, unless this had been impaired by the active ingredients.
as §3, §4, §5, §6

Assay [5] deals with Apera spica-venti. Description: greenhouse test, pre-emergence treatment, APESV.
From the text: as §1, §7, §3, §4, §5, §6

In the case of `OC(Cc1nc(C2CC2)ncc1-c1ccccc1Cl)c1ccccc1` (centres unmarked) [Ex. 66], the herbicidal activity result in assay [1] (2000 g/ha) was “very good (a very good herbicidal activity is given at values of at least 85)”.
Consider `Cc1ccc(-c2nc(C3CC3)ncc2-c2ccc(F)cc2I)o1` [Ex. 81], for which the herbicidal activity result in assay [2] (1000 g/ha) and in assay [3] (1000 g/ha) was “very good (a very good herbicidal activity is given at values of at least 85)” throughout.
For the molecule `COC(=O)C(O)c1nc(C2CC2)ncc1-c1ccccc1Cl` (centres unmarked) [Ex. 220], in assay [4] (1000 g/ha), the herbicidal activity result is “good (A good herbicidal activity is given at values of at least 70)”.
In the case of `Brc1ccccc1-c1cnc(C2CC2)nc1-c1ccco1` [Ex. 34], the herbicidal activity entry is “good (A good herbicidal activity is given at values of at least 70)” in assay [4] (2000 g/ha), “very good (a very good herbicidal activity is given at values of at least 85)” in assay [1] (2000 g/ha), “good (A good herbicidal activity is given at values of at least 70)” in assay [3] (2000 g/ha) and “very good (a very good herbicidal activity is given at values of at least 85)” in assay [5] (2000 g/ha).
As to `OC1(Cc2nc(C3CC3)ncc2-c2ccccc2Cl)COC1` [Ex. 73], the herbicidal activity entry in assay [3] (2000 g/ha) is “good (A good herbicidal activity is given at values of at least 70)”.
For `Clc1ccccc1-c1cnc(C2CC2)nc1CCc1ccco1` [Ex. 102], in assay [1] (2000 g/ha), the herbicidal activity result is “very good (a very good herbicidal activity is given at values of at least 85)”.
For `Cc1ncoc1-c1nc(C2CC2)ncc1-c1ccc(C(F)(F)F)cc1Cl` [Ex. 264], the herbicidal activity entry in assay [2] (500 g/ha) and in assay [3] (500 g/ha) was “very good (a very good herbicidal activity is given at values of at least 85)” each time.
For the molecule `N#Cc1csc(-c2nc(C3CC3)ncc2-c2ccccc2Cl)c1` [Ex. 126], in assay [1] (2000 g/ha), the herbicidal activity result was “very good (a very good herbicidal activity is given at values of at least 85)”.
Regarding `CCc1ncc(-c2ccccc2Br)c(-c2ccoc2)n1` [Ex. 63], the herbicidal activity entry in assay [1] (1000 g/ha) was “very good (a very good herbicidal activity is given at values of at least 85)”.
As for `CC(C)(O)c1nc(C2CC2)ncc1-c1ccc(F)cc1Cl` [Ex. 135], in assay [3] (500 g/ha), the herbicidal activity result was “good (A good herbicidal activity is given at values of at least 70)”.
As to `Cc1ccc(-c2nc(C3CC3)ncc2-c2ccccc2C)o1` [Ex. 120], the herbicidal activity result in assay [3] (1000 g/ha) is recorded as “good (A good herbicidal activity is given at values of at least 70)”.
For the molecule `O=C(O)C(O)Cc1nc(C2CC2)ncc1-c1ccccc1Cl` (centres unmarked) [Ex. 97], the herbicidal activity entry in assay [1] (2000 g/ha) and in assay [5] (2000 g/ha) was “very good (a very good herbicidal activity is given at values of at least 85)” in each case.
With `FC(F)(F)c1ccc(-c2nc(C3CC3)ncc2-c2ccccc2Cl)s1` [Ex. 216], the herbicidal activity result in assay [1] (1000 g/ha), in assay [3] (1000 g/ha) and in assay [5] (1000 g/ha) was “very good (a very good herbicidal activity is given at values of at least 85)” in each case.
As for `Cc1ccc(-c2nc(C3CC3)ncc2-c2cc(F)c(F)cc2Cl)o1` [Ex. 79], the herbicidal activity entry in assay [2] (1000 g/ha) and in assay [3] (1000 g/ha) was “very good (a very good herbicidal activity is given at values of at least 85)” in each case.
As for `OC1(Cc2nc(C3CC3)ncc2-c2ccccc2Br)COC1` [Ex. 155], the herbicidal activity result in assay [1] (2000 g/ha) and in assay [3] (2000 g/ha) was “very good (a very good herbicidal activity is given at values of at least 85)” each time.
Regarding `OC1(c2nc(C3CC3)ncc2-c2ccccc2Cl)CCC1` [Ex. 143], in assay [1] (2000 g/ha), the herbicidal activity result is listed as “very good (a very good herbicidal activity is given at values of at least 85)”.
Consider `CC(C)(C)/C=C/c1nc(C2CC2)ncc1-c1ccccc1Cl` [Ex. 95], for which the herbicidal activity entry in assay [1] (2000 g/ha), in assay [3] (2000 g/ha) and in assay [5] (2000 g/ha) was “very good (a very good herbicidal activity is given at values of at least 85)” in each case.
Regarding `COc1cccc(-c2nc(C3CC3)ncc2-c2ccccc2Cl)c1` [Ex. 125], in assay [1] (500 g/ha), the herbicidal activity result is recorded as “very good (a very good herbicidal activity is given at values of at least 85)”.
Turning to `Fc1cccc(Cl)c1-c1cnc(C2CC2)nc1-c1ccco1` [Ex. 60], the herbicidal activity entry in assay [2] (1000 g/ha) and in assay [3] (1000 g/ha) was “very good (a very good herbicidal activity is given at values of at least 85)” throughout.
For `Cc1ccoc1-c1nc(C2CC2)ncc1-c1ccccc1I` [Ex. 77], the herbicidal activity entry in assay [2] (1000 g/ha) and in assay [3] (1000 g/ha) was “very good (a very good herbicidal activity is given at values of at least 85)” in each case.
Consider `Clc1ccccc1-c1cnc(C2CC2)nc1COCc1ccccc1` [Ex. 21], for which the herbicidal activity entry in assay [3] (1000 g/ha) and in assay [5] (1000 g/ha) was “very good (a very good herbicidal activity is given at values of at least 85)” each time.
Consider `Clc1ccccc1-c1cnc(C2CC2)nc1CC1=CCOCC1` [Ex. 104], for which the herbicidal activity result in assay [4] (2000 g/ha) is reported as “good (A good herbicidal activity is given at values of at least 70)”; in assay [1] (2000 g/ha), “good (A good herbicidal activity is given at values of at least 70)”; in assay [3] (2000 g/ha) it was “very good (a very good herbicidal activity is given at values of at least 85)”; in assay [5] (2000 g/ha) it was “very good (a very good herbicidal activity is given at values of at least 85)”.
For the molecule `Cc1ccc(-c2nc(C3CC3)ncc2-c2ccccc2Cl)o1` [Ex. 26], the herbicidal activity entry in assay [4] (2000 g/ha), in assay [1] (2000 g/ha), in assay [3] (2000 g/ha) and in assay [5] (2000 g/ha) was “very good (a very good herbicidal activity is given at values of at least 85)” throughout.
`CC(O)c1nc(C2CC2)ncc1-c1ccc(F)cc1Cl` (centres unmarked) [Ex. 112]: the herbicidal activity result in assay [1] (1000 g/ha) is given as “good (A good herbicidal activity is given at values of at least 70)”.
`OC(Cc1nc(C2CC2)ncc1-c1ccccc1Cl)c1nc(Cl)ccc1Cl` (centres unmarked) [Ex. 256]: the herbicidal activity entry in assay [4] (2000 g/ha), in assay [1] (2000 g/ha) and in assay [5] (2000 g/ha) was “very good (a very good herbicidal activity is given at values of at least 85)” in each case.
`OC(c1nc(C2CC2)ncc1-c1ccccc1Cl)C(O)c1c(Cl)ccc(Cl)c1Cl` (centres unmarked) [Ex. 240]: the herbicidal activity entry in assay [4] (2000 g/ha) and in assay [5] (2000 g/ha) was “very good (a very good herbicidal activity is given at values of at least 85)” in each case.
Consider `Clc1ccccc1-c1cnc(C2CC2)nc1-c1cocn1` [Ex. 215], for which the herbicidal activity result in assay [3] (2000 g/ha) and in assay [5] (2000 g/ha) was “very good (a very good herbicidal activity is given at values of at least 85)” throughout.
As for `CC(=O)OC(c1nc(C2CC2)ncc1-c1ccccc1Cl)C(C)(C)OC(C)=O` (centres unmarked) [Ex. 274], the herbicidal activity entry in assay [4] (1000 g/ha), in assay [1] (1000 g/ha), in assay [3] (1000 g/ha) and in assay [5] (1000 g/ha) was “very good (a very good herbicidal activity is given at values of at least 85)” in each case.
As for `Cc1nc(-c2nc(C3CC3)ncc2-c2ccccc2Br)co1` [Ex. 288], the herbicidal activity entry in assay [3] (2000 g/ha) is “very good (a very good herbicidal activity is given at values of at least 85)”.
In the case of `Cc1ccc(-c2nc(C3CC3)ncc2-c2cc(F)ccc2C)o1` [Ex. 110], the herbicidal activity result in assay [1] (1000 g/ha) was “good (A good herbicidal activity is given at values of at least 70)”.
With `CC(C)=CC=Cc1nc(C2CC2)ncc1-c1ccccc1Cl` [Ex. 224], the herbicidal activity result in assay [4] (2000 g/ha), in assay [1] (2000 g/ha), in assay [3] (2000 g/ha) and in assay [5] (2000 g/ha) was “very good (a very good herbicidal activity is given at values of at least 85)” in each case.
